Measured values as given in ChEMBL document CHEMBL1135037 (Bioorg Med Chem Lett, 2002).

How the values were obtained:
[1] = molecular target: T1, Serine-threonine protein phosphatase 2A regulatory subunit (Gallus gallus, UniProt Q8AWE3); test: Concentration required to inhibit the action of protein phosphatase 2A
T1 sequence (Q8AWE3 whole entry): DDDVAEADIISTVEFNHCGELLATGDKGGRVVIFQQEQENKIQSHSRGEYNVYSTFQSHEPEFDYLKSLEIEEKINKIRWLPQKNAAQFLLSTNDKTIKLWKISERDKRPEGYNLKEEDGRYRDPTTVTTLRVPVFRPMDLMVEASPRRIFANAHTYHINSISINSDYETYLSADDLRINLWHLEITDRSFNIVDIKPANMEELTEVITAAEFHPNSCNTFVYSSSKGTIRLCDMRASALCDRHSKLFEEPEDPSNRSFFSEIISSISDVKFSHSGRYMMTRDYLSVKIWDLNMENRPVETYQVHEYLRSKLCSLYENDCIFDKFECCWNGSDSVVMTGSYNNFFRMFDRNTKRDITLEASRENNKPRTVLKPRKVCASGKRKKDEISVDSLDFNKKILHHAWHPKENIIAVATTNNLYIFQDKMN

[2] = Inhibition against PP1 at 100 uM
[3] = molecular target: T2, Serine-threonine protein phosphatase 2A regulatory subunit (Gallus gallus) (UniProt Q8AWE3); test: Inhibition against PP2A at 100 uM
T2 sequence (whole entry): T1 sequence (Q8AWE3 whole entry)

[4] = Inhibitory concentration against PP1 was determined
[5] = organism: Homo sapiens; test: Selectivity against Protein phosphatase 2A
[6] = Selectivity was calculated against protein phosphatase 1
[7] = Selectivity was evaluated against Protein phosphatase 1

COC[C@@H]([C@H](O)[C@H](O)C(=O)NCC[C@H](C)c1nc(/C=C/C[C@@H]2O[C@]3(C[C@@H](O)[C@@H]2C)O[C@H]([C@H](C[C@H](O)[C@H](C)[C@H](O)[C@H](C)/C=C(C)/C(C)=C/C=C/C(C)=C\C#N)OC)[C@H](OP(=O)(O)O)C3(C)C)co1)N(C)C [CALYCULIN A]
IC50 [1]: 0.002 µM

O=C1OC(=O)C2C1[C@@H]1C=C[C@H]2S1 (some centres not stated)
inhibition [2]: 0%
inhibition [3]: 0%

C[C@@]12C(=O)OC(=O)[C@]1(C)[C@H]1CC[C@@H]2O1 [CANTHARIDIN]
IC50 [4]: 0.16 µM

C[C@@](O)(/C=C/[C@H]1CC=CC(=O)O1)[C@@H](C[C@@H](O)\C=C/C=C\C=C\CO)OP(=O)(O)O [FOSTRIECIN SODIUM]
Selectivity [5]: > 40000
IC50 [1]: 0.0034 µM
IC50 [4]: 130 µM

O=C1OC(=O)C2C1[C@@H]1CC[C@H]2O1 (some centres not stated)
inhibition [2]: 90%
inhibition [3]: 97%
IC50 [4]: 2.4 µM

COC(=O)C1C(C(=O)OC)[C@H]2C=C[C@@H]1O2 (some centres not stated)
inhibition [2]: 46%
IC50 [1]: > 2000 µM
inhibition [3]: 6%
IC50 [4]: 50 µM
Selectivity [6]: > 40

COC(=O)C1C(C(=O)OC)[C@H]2C=C[C@@H]1S2 (some centres not stated)
inhibition [2]: 3%
inhibition [3]: 3%

O=C1NC(=O)C2C1[C@@H]1C=C[C@H]2S1 (some centres not stated)
inhibition [2]: 87%
Selectivity [7]: 34
IC50 [1]: 426 µM
inhibition [3]: 30%
IC50 [4]: 12.5 µM
